Where two headings read alike, the source gives them in different places.
Tests used:
Type in all cases: biochemical
Cathepsin K = target: T1, Cathepsin K (Homo sapiens, UniProt P43235); test: Cathepsin K inhibition, fluorogenic peptide substrate kinetic assay (selectivity); conditions: ratio of cathepsin K inhibition constant to cathepsin S inhibition constant
T1 sequence (P43235 115-329): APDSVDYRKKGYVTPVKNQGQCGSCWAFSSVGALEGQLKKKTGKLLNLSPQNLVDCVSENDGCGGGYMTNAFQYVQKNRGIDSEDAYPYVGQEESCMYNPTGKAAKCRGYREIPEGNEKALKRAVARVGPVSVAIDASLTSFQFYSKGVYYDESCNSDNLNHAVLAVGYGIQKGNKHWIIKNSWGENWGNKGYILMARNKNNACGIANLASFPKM

Cathepsin L = Cathepsin L (Homo sapiens, UniProt P07711); test: Cathepsin L inhibition, fluorogenic peptide substrate kinetic assay (selectivity); conditions: ratio of cathepsin L inhibition constant to cathepsin S inhibition constant
Cathepsin L, sequence (P07711 114-333, species assumed): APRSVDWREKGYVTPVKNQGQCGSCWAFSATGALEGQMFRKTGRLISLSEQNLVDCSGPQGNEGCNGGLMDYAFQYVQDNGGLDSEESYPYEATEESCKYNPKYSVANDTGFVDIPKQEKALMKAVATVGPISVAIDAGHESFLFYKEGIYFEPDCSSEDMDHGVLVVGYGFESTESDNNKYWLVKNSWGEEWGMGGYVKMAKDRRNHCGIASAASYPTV

Cathepsin B = Cathepsin B (Homo sapiens, UniProt P07858); test: Cathepsin B inhibition, fluorogenic peptide substrate kinetic assay (selectivity); conditions: ratio of cathepsin B inhibition constant to cathepsin S inhibition constant;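 further: value is the cathepsin B inhibition constant divided by the cathepsin S one, each from kinetic fluorescence readings (ex 380 nm, em 450 nm) of a 10 µM coumarin peptide substrate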
Cathepsin S = Cathepsin S (Homo sapiens, UniProt P25774); test: Cathepsin S inhibition, fluorogenic peptide substrate kinetic assay;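 further: cleavage rate of a coumarin-labelled peptide substrate (50 µM) read as fluorescence increase at Ex 380 nm and Em 450 nm, relative to inhibitor-free control reactions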
Cathepsin S, sequence (P25774 115-331, species assumed): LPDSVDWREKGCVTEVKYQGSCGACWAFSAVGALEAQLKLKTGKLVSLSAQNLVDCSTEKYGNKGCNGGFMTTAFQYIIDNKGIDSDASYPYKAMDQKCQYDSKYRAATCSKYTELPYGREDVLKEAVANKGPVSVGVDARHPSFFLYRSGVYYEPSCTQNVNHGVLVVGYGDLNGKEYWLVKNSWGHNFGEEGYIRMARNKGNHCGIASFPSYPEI

[1] = Cathepsin S inhibition constant, pH5.5, 20 minutes preincubation at room temperature, read-out: Ki Cat. S

| Structure (SMILES) | Selectivity for Cat. S over Cat. K (Cathepsin K) | Selectivity for Cat. S over Cat. L (Cathepsin L) | Selectivity for Cat. S over Cat. B (Cathepsin B) | Ki (Cathepsin S; [1]) [µM] | Ki (Cathepsin S) [µM] |
| --- | --- | --- | --- | --- | --- |
| C[C@@H](CN1CCc2cc(F)ccc21)NC(=O)[C@@H](CC(=O)N1CCOCC1)CC1CCCCC1 [Example 8, 2-(R)-Cyclohexylmethyl-N-[2-(5-fluoro-2,3-dihydro-indol-1-yl)-1-(S)-methyl-ethyl]-4-morpholin-4-yl-4-oxo-butyramide] | ++ (++, >100) | ++ (++, >100) | +++ (+++, >1000) | < 0.1 |  |
| O=C(C[C@@H](CC1CCCCC1)C(=O)N1CCOCC1)NCCNc1ccc(F)cc1 [Example 9, 3-(R)-Cyclohexylmethyl-N-[2-(4-fluoro-phenylamino)-ethyl]-4-morpholin-4-yl-4-oxo-butyramide] | + (+, >10) | + (+, >10) | + (+, >10) |  | 1 to 10 |
| C[C@@H](CN1CCc2cc(F)ccc21)NC(=O)[C@H](CC1CCCCC1)OC(=O)N1CCOCC1 [Example 12, Morpholine-4-carboxylic acid 2-cyclohexyl-1-(S)-[2-(5-fluoro-2,3-dihydro-indol-1-yl)-1-(S)-methyl-ethylcarbamoyl]-ethyl ester] | + (+, >10) | + (+, >10) | ++ (++, >100) | 0.1 to 1 |  |
| O=C(NCCNc1ccc(OC(F)(F)F)cc1)[C@@H](CC(=O)N1CCOCC1)CC1CCCCC1 [Example 13, 2-(R)-Cyclohexylmethyl-4-morpholin-4-yl-4-oxo-N-[2-(4-trifluoromethoxy-phenylamino)-ethyl]-butyramide] | ++ (++, >100) | ++ (++, >100) | ++ (++, >100) |  | 0.1 to 1 |
| C[C@@H](CNc1ccc(OC(F)(F)F)cc1)NC(=O)[C@@H](CC(=O)N1CCOCC1)CC1CCCCC1 [Example 14, 2-(R)-Cyclohexylmethyl-N-[1-(S)-methyl-2-(4-trifluoromethoxy-phenylamino)-ethyl]-4-morpholin-4-yl-4-oxo-butyramide] | ++ (++, >100) | ++ (++, >100) | +++ (+++, >1000) |  | < 0.1 |
| C[C@@H](CNc1ccc(OC(F)(F)F)cc1)NC(=O)[C@@H](CC(=O)N1CCOCC1)CC1CCCC1 [Example 15, 2-(R)-Cyclopentylmethyl-N-[1-(S)-methyl-2-(4-trifluoromethoxy-phenylamino)-ethyl]-4-morpholin-4-yl-4-oxo-butyramide] | ++ (++, >100) | ++ (++, >100) | +++ (+++, >1000) |  | < 0.1 |
| C[C@@H](CNc1ccc(OC(F)(F)F)cc1)NC(=O)[C@H](CC1CCCC1)[C@@H](C)C(=O)N1CCOCC1 [Example 16, 2-(R)-Cyclopentylmethyl-3-(R)-methyl-N-[1-(S)-methyl-2-(4-trifluoromethoxy-phenylamino)-ethyl]-4-morpholin-4-yl-4-oxo-butyramide] | + (+, >10) | + (+, >10) | ++ (++, >100) | 0.1 to 1 |  |
| C[C@@H](CNc1ccc(OC(F)(F)F)cc1)NC(=O)[C@H](CS(=O)(=O)Cc1ccccc1)NC(=O)N1CCOCC1 [Example 18, Morpholine-4-carboxylic acid {1-(R)-[1-(S)-methyl-2-(4-trifluoromethoxy-phenylamino)-ethylcarbamoyl]-2-phenylmethanesulfonyl-ethyl}-amide] | +++ (+++, >1000) | ++ (++, >100) | ++ (++, >100) | < 0.1 |  |

Further lines, results first:

| Selectivity for Cat. S over Cat. K (Cathepsin K) | Selectivity for Cat. S over Cat. L (Cathepsin L) | Selectivity for Cat. S over Cat. B (Cathepsin B) | Ki (Cathepsin S; [1]) [µM] | Ki (Cathepsin S) [µM] | Structure (SMILES) |
| --- | --- | --- | --- | --- | --- |
| ++ (++, >100) | ++ (++, >100) | ++ (++, >100) | 0.1 to 1 |  | COc1ccc(NCCNC(=O)[C@@H](CC(=O)N2CCOCC2)CC2CCCCC2)cc1 [Example 19, (R)-2-Cyclohexylmethyl-N-[2-(4-methoxy-phenylamino)-ethyl]-4-morpholin-4-yl-4-oxo-butyramide] |
| + (+, >10) | + (+, >10) | +++ (+++, >1000) |  | < 0.1 | CCC[C@@H](CNc1ccc(OC(F)(F)F)cc1)NC(=O)[C@@H](CC(=O)N1CCOCC1)CC1CCCCC1 [Example 20, 2-(R)-Cyclohexylmethyl-4-morpholin-4-yl-4-oxo-N-{1-(S)-[(4-trifluoromethoxy-phenylamino)-methyl]-butyl}-butyramide] |
| ++ (++, >100) | +++ (+++, >1000) | +++ (+++, >1000) |  | < 0.1 | C[C@@H](CNc1ccc(OC(F)(F)F)cc1)NC(=O)[C@H](CCC1CCCCC1)CC(=O)N1CCOCC1 [Example 21, 2-(R)-(2-Cyclohexyl-ethyl)-N-[1-(S)-methyl-2-(4-trifluoromethoxy-phenylamino)-ethyl]-4-morpholin-4-yl-4-oxo-butyramide] |
| + (+, >10) | + (+, >10) | +++ (+++, >1000) |  | < 0.1 | CC[C@@H](CNc1ccc(OC(F)(F)F)cc1)NC(=O)[C@@H](CC(=O)N1CCOCC1)CC1CCCCC1 [Example 22, 2-(R)-Cyclohexylmethyl-4-morpholin-4-yl-4-oxo-N-{1-(S)-[(4-trifluoromethoxy-phenylamino)-methyl]-propyl}-butyramide] |
| ++ (++, >100) | ++ (++, >100) | ++ (++, >100) |  | 0.1 to 1 | C[C@@H](CNc1ccc(OC(F)(F)F)cc1)NC(=O)[C@H](CCC(C)(C)C)CC(=O)N1CCOCC1 [Example 25, 5,5-Dimethyl-2-(R)-(2-morpholin-4-yl-2-oxo-ethyl)-hexanoic acid [1-(S)-methyl-2-(4-trifluoromethoxy-phenylamino)-ethyl]-amide] |
| + (+, >10) | ++ (++, >100) | +++ (+++, >1000) |  | < 0.1 | CCC[C@@H](CNc1ccc(OC(F)(F)F)cc1)NC(=O)[C@@H](CC(=O)N1CCOCC1)CC1CCCC1 [Example 27, 2-(R)-Cyclopentylmethyl-4-morpholin-4-yl-4-oxo-N-{1-(S)-[(4-trifluoromethoxy-phenylamino)-methyl]-butyl}-butyramide] |
| + (+, >10) | + (+, >10) | +++ (+++, >1000) |  | < 0.1 | CC(C)[C@@H](CNc1ccc(OC(F)(F)F)cc1)NC(=O)[C@@H](CC(=O)N1CCOCC1)c1ccccc1 [Example 34, N-{2-Methyl-1-(S)-[(4-trifluoromethoxy-phenylamino)-methyl]-propyl}-4-morpholin-4-yl-4-oxo-2-(S)-phenyl-butyramide] |
| + (+, >10) | ++ (++, >100) | +++ (+++, >1000) | < 0.1 |  | CC(C)[C@@H](CNc1ccc(OC(F)(F)F)cc1)NC(=O)[C@@H](CC(=O)N1CCOCC1)C1CCCCC1 [Example 35, 2-(S)-Cyclohexyl-N-{2-methyl-1-(S)-[(4-trifluoromethoxy-phenylamino)-methyl]-propyl}-4-morpholin-4-yl-4-oxo-butyramide] |
| ++ (++, >100) | + (+, >10) | +++ (+++, >1000) | < 0.1 |  | CC[C@@H](CNc1ccc(OC(F)(F)F)cc1)NC(=O)[C@H](CCC1CCCC1)CC(=O)N1CCOCC1 [Example 36, 2-(R)-(2-Cyclopentyl-ethyl)-4-morpholin-4-yl-4-oxo-N-{1-(S)-[(4-trifluoromethoxy-phenylamino)-methyl]-propyl}-butyramide] |
| ++ (++, >100) | + (+, >10) | ++ (++, >100) |  | < 0.1 | O=C(N[C@@H](CCc1ccccc1)CNc1ccc(OC(F)(F)F)cc1)[C@H](CCC1CCCC1)CC(=O)N1CCOCC1 [Example 37, 2-(R)-(2-Cyclopentyl-ethyl)-4-morpholin-4-yl-4-oxo-N-{3-phenyl-1-(S)-[(4-trifluoromethoxy-phenylamino)-methyl]-propyl}-butyramide] |
| + (+, >10) | ++ (++, >100) | +++ (+++, >1000) | < 0.1 |  | CCC[C@@H](CNc1ccc(OC(F)(F)F)cc1)NC(=O)[C@@H](CC(=O)N1CCOCC1)c1ccccc1 [Example 39, 4-Morpholin-4-yl-4-oxo-2-(S)-phenyl-N-{1-(S)-[(4-trifluoromethoxy-phenylamino)-methyl]-butyl}-butyramide] |
| + (+, >10) | ++ (++, >100) | +++ (+++, >1000) |  | < 0.1 | CC(C)[C@@H](CNc1ccc(OC(F)(F)F)cc1)NC(=O)[C@@H](CC(=O)N1CCOCC1)c1ccc(F)cc1 [Example 41, 2-(S)-(4-Fluoro-phenyl)-N-{2-methyl-1-(S)-[(4-trifluoromethoxy-phenylamino)-methyl]-propyl}-4-morpholin-4-yl-4-oxo-butyramide] |

Reference: patent publication US7732449B2, “Inhibitors of cathepsin S” (IRM LLC, priority 2003, dated 2010)
